Data on one compound can be found in US20130012473A1, “COMBINED USE OF PHOSPHOLIPID AND SULFATE GROUPS-CARRYING POLYSACCHARIDES FOR INHIBITING METASTATIC SPREAD” (KTB TUMORFORSCHUNGSGESELLSCHAFT MBH, priority 2010, published 2013).

The test system of data set [1] is B16.F10 cells. Nature of the data set: SACED cell migration assay on fibronectin. The class given is cell-based, mouse. Conditions: 450 μM LysoPC, fibronectin layers. The protocol: Quantification of cell motility: Cell migration of B16.F10 cells cultivated on fibronectin (Sigma-Aldrich Chemie) covered dishes was determined with or without LysoPC. […] (Nikon, Dusseldorf, Germany) and an incubation chamber for constant temperature, applying NIS Elements AR 2.30 software and a camera (COOL-1300I; Vosskuhler GmbH, Germany)
Lamella dynamics and cell migration velocity were analyzed by the computer-assisted stroboscopic analysis of cell dynamics (SACED). At least 15 individual cells, incubated with or without LysoPC, were monitored over a period of 10 min by capturing digital images every 2 s. Subsequently, eight areas of interest were marked on each image by lines that crossed the cell lamella. The resulting 1 pixel wide areas were cut and lined up in time space plots that allowed the quantification of relevant motility data (Hinz, B. et al., Exp. Cell. Res. 251:234-243 (1999)).

In the next data set the test system is VLA-4. Description: Flow cytometry, VLA-4 surface expression (anti-mouse CD49d mAb). The class given is cell-based. The following applies: repeatedly incubated with 450 μM LysoPC for 13 days. The procedure: (§1) FIG. 3: Impact of exogenous LysoPC on the surface expression of VLA-4 or VCAM-1- and P-selectin-ligands. (A) Surface expression of VLA-4 on B16.F10 cells treated with 450 μM LysoPC for 13 days was controlled by flow cytometric analysis. […] FACS histograms (A-C) show one representative of three independent experiments. In all experiments cells only incubated with the respective FITC-conjugated detection antibody served as control.
For orientation: A flow cytometer gives signals particle by particle.

The subject of another data set is VCAM-1 Fc chimera. Nature of the data set: Flow cytometry, binding of soluble VCAM-1 Fc chimera. The class given is cell-based, mouse. The following applies: repeatedly incubated with 450 μM LysoPC for 13 days. The protocol: as §1
Data set [2] concerns B16.F10 cells. Nature of the data set: LysoPC-mediated toxicity, cell viability by BrdU assay. The class given is cell-based, mouse. The procedure: BrdU proliferation assay: Proliferation and viability were determined by BrdU and WST-1 assay (Roche Diagnostics GmbH, Penzberg, Germany) according to the manufacturer's instructions.
LysoPC was toxic towards B16.F10 cells (p<0.001) at physiological concentrations (≧150 μM) in culture medium (DMEM plus 10% FCS). Thus, different amounts of BSA were added to reduce the concentration of cellular assessable LysoPC (monomolecular and micellar dissolved) and to therefore reduce LysoPC toxicity. Viability of the tumor cells was determined by BrdU assay and adding 10 mg BSA/ml, reduced cell viability was evident above 300 μM LysoPC. Using 20 mg/ml, reduced cell viability was evident above 450 μM LysoPC. Thus, to avoid toxicity of exogenous LysoPC (150 μM to 900 μM) towards the tumor cells during the LysoPC-removal-assay (FIG. 1), addition of 20 mg-40 mg BSA/ml DMEM was essential.
For orientation: Uptake of a labelled nucleoside into DNA is a usual measure of proliferation.

Another data set has as its system B16.F10 melanoma cells. Nature of the data set: Removal of exogenous LysoPC from the medium (PC/LysoPC and free choline assays). The class given is cell-based, mouse. Conditions: in absence of the cells. From the text:
Cell culture and LysoPC feeding: Mouse melanoma cell line B16.F10 (ATCC, CRL-6475) was passaged in vitro in DMEM as described before (Fritzsche, J. et al., Thromb. Haemost. 100:1166-1175 (2008)). Cells were routinely (monthly) tested to be negative of mycoplasms, their morphological appearance observed by microscopic means and examined for the expression of adhesion receptors and ligands by flow cytometry. LysoPC removal (1-Heptadecanoyl-2-hydroxy-sn-glycero-3-phosphocholine, (C17:0; HEP-LysoPC), Avanti Polar Lipids, Inc., or 1-Hexadecanoyl-sn-glycero-3-phosphocholine, (C16:0; HEX-LysoPC), Sigma, Taufkirchen, Germany was determined using 1×10^5 cells in 24-well tissue culture plates (Greiner BioOne, Frickenhausen, Germany). Non-cytotoxic LysoPC/BSA DMEM-solutions (FIG. 7 A) were prepared by adding 20-40 mg/ml bovine serum albumine (BSA, PAA Laboratories GmbH, Cölbe, Germany). Cell culture supernatants were collected from triplicates of LysoPC treated and untreated control wells. Cells were removed from tissue culture plates using trypsin/EDTA. […]
Determination of LysoPC concentration: LysoPC concentration was determined by an enzymatic PL (PC/LysoPC) assay containing phospholipase D and choline oxidase (mti diagnostics GmbH, Idstein, Germany). […]
B, C and D) Colorimetric assays for the quantification of LysoPC removal from the supernatant of B16.F10. […]

The structures appear in SMILES notation.

For `CCCCCCCCCCCCCCCCC(=O)OC[C@@H](O)COP(=O)([O-])OCC[N+](C)(C)C` [LysoPC], the “lamellipodia dynamics (frequencies of protrusion and retraction)” value with B16.F10 cells [1] is “attenuated dynamics (p<0.05) of lamellipodia protrusion and retraction”. Besides, the lamellipodia retraction velocity result in the data set with B16.F10 cells [1] (p<0.05) is recorded as “slower lamellipodia retraction velocity”. The VLA-4 receptor expression entry in the data set with VLA-4 is reported as “did not influence VLA-4 receptor expression”. Further, in the data set with VCAM-1 Fc chimera, the “functionality of VLA-4 to interact with soluble VCAM-1-Fc chimera” value is listed as “only slightly impaired”. Also, the “LysoPC concentration with reduced cell viability” value is recorded as “above 300 μM” with B16.F10 cells [2] (10 mg BSA/ml added) and “above 450 μM” in the data set on B16.F10 cells [2] (20 mg/ml BSA added). Also, the “toxic LysoPC concentration” value in the data set on B16.F10 cells [2] (culture medium DMEM plus 10% FCS, no added BSA, p<0.001) was ≥ 150 µM. The “LysoPC concentration in culture medium” value in the data set on B16.F10 melanoma cells is reported as “not changed in absence of the cells”.
